Results on 38 molecules are retold here after patent US20260193268A1, “TRICYCLIC PI3Ka INHIBITOR, PREPARATION METHOD THEREFOR, AND PHARMACEUTICAL USE THEREOF” (WIGEN BIOMEDICINE TECHNOLOGY (SHANGHAI) CO., LTD., priority 2022, published 2026).

The test system of assay [1] is HCC1954 cells (with PI3Kα H1047R mutation). Briefly: In vitro inhibition of HCC1954 cell proliferation (CellTiter-Lumi). To be noted: Homo sapiens, HCC1954, 144 h. It is filed as cell-based. The protocol: Assay for In Vitro Inhibition of HCC1954 Cell Proliferation by Compounds of the Present Disclosure
The growth of the cells was evaluated, and the IC50 for the inhibition of cell growth by the compounds was calculated.

Assay [2] relates to MCF-7 cells (with PI3Kα E545K mutation). Briefly: In vitro inhibition of MCF-7 cell proliferation (CellTiter-Lumi). The format is cell-based. Particulars: Homo sapiens, MCF7, 144 h. The method, then:
Biological Example 3. Assay for In Vitro Inhibition of MCF-7 Cell Proliferation by Compounds of the Present Disclosure
MCF-7 cells (with PI3Kα E545K mutation) were seeded into a 384-well plate (Fisher 142762) at 2000 cells per well. The next day, serially diluted compounds were added, and 144 h after the addition, CellTiter-Lumi (Beyotime C0068XL) was added to measure the ATP content in the cells. The growth of the cells was evaluated, and the IC50 for the inhibition of cell growth by the compounds was calculated.

[3] abbreviates: HCC1954 cells, 144 h, CellTiter-Lumi, class symbols, read-out: Inhibitory activity against HCC1954 cells (IC50), class symbols.
Where [4] appears, read: class symbols, read-out: Inhibitory activity against MCF-7 cells (IC50), class symbols.
Where [5] appears, read: HCC1954 cells, 144 h, CellTiter-Lumi, numeric values, read-out: Inhibitory activity against HCC1954 cells (IC50).
The mark [6] stands for this setting: numeric values, read-out: Inhibitory activity against MCF-7 cells (IC50).

Each structure is given as a SMILES string. pIC50: −log10 of the molar value. Like-named read-outs stand apart in the source and are kept apart here. A value given as a limit tells only on which side of the number the result lay.

As usually defined, the pIC50 is the IC50 on a negative log10 scale, so that one unit is a factor of ten.

Turning to `CC(C)(C=C(C#N)C(=O)Nc1ccc(N2CC(N3CCN(c4ccc5c(c4)-c4nc(N6C(=O)OC[C@H]6C(F)F)cn4CCO5)CC3)C2)cc1Cl)NC1COC1` [Compound 362], the pIC50 in assay [1] (setting [3]) and in assay [2] (setting [4]) was > 7.30 throughout.
Consider `CC(C)(C=C(C#N)C(=O)Nc1ccc(N2CC(N3CCN(c4ccc5c(c4)-c4nc(N6C(=O)OC[C@H]6C(F)F)cn4CCO5)CC3)C2)nc1)N1CCC1` [Compound 247], for which the pIC50 in assay [1] (setting [3]) and in assay [2] (setting [4]) was > 7.30 each time.
For the molecule `N#CC(=CC1(NC2COC2)CCC1)C(=O)Nc1ccc(N2CC(N3CCN(c4ccc5c(c4)-c4nc(N6C(=O)OC[C@H]6C(F)F)cn4CCO5)CC3)C2)cc1` [Compound 388], the negative-log IC50 (pIC50) in assay [1] (setting [3]) and in assay [2] (setting [4]) was > 7.30 in each case.
As for `CC(C)(C=C(C#N)C(=O)Nc1ccc(N2CC(N3CCN(c4ccc5c(c4)-c4nc(N6C(=O)OC[C@H]6C(F)F)cn4CCO5)CC3)C2)c(Cl)c1)NC1COC1` [Compound 353], the negative logarithm of the IC50 (pIC50) in assay [1] (setting [3]) and in assay [2] (setting [4]) was > 7.30 in each case.
For `N#C/C(=C\CN)C(=O)Nc1ccc(N2CC(N3CCN(c4ccc5c(c4)-c4nc(N6C(=O)OC[C@H]6C(F)F)cn4CCO5)CC3)C2)cc1` [Compound 184], the pIC50 in assay [1] (setting [3]) and in assay [2] (setting [4]) was > 7.30 throughout.
Take `C=CC(=O)Nc1ccc(N2CC(N3CCN(c4ccc5c(c4)-c4nc(N6C(=O)OC[C@H]6C(F)F)cn4CCO5)CC3)C2)c(Cl)c1` [Compound 195]: the pIC50 in assay [1] (setting [5]) was 8.34; in assay [2] (setting [6]), 9.52.
As for `Cc1nc(-c2cn3c(n2)-c2cc(N4CCN(C5CN(c6ccc(NC(=O)C(C#N)=CC(C)(C)NC(=O)OC(C)(C)C)cc6)C5)CC4)ccc2OCC3)n(C(C)C)n1` [Compound 338], the pIC50 in assay [1] (setting [3]) and in assay [2] (setting [4]) was > 7.30 in each case.
With `CC(C)(O)C=C(C#N)C(=O)Nc1cnc(N2CC(N3CCN(c4ccc5c(c4)-c4nc(N6C(=O)OC[C@H]6C(F)F)cn4CCO5)CC3)C2)nc1` [Compound 266], the pIC50 in assay [1] (setting [3]) and in assay [2] (setting [4]) was > 7.30 throughout.
For the molecule `CC(C)(C)C=C(C#N)C(=O)Nc1ccc(N2CC(N3CCN(c4cc5c(cc4F)OCCn4cc(N6C(=O)OC[C@H]6C(F)F)nc4-5)CC3)C2)cc1` [Compound 315], the pIC50 in assay [1] (setting [3]) and in assay [2] (setting [4]) was > 7.30 throughout.
For `Cc1c(N2C(=O)OC[C@H]2C(F)F)nc2n1CCOc1ccc(N3CCN(C4CN(c5ccc(NC(=O)C(C#N)=CC(C)(C)C)cc5)C4)CC3)cc1-2` [Compound 323], the pIC50 in assay [1] (setting [3]) and in assay [2] (setting [4]) was > 7.30 each time.
In the case of `C=CC(=O)Nc1cnc(N2CC(N3CCN(c4ccc5c(c4)-c4nc(N6C(=O)OC[C@H]6C(F)F)cn4CCO5)CC3)C2)cc1C` [Compound 217], the pIC50 in assay [1] (setting [3]) and in assay [2] (setting [4]) was > 7.30 throughout.
On to `C=CC(=O)Nc1ccc(N2CC(N3CCN(c4ccc5c(c4)-c4nc(N6C(=O)OC[C@H]6C(F)F)cn4CCO5)CC3)C2)c(C)n1` [Compound 151], for which the figures for the negative logarithm of the IC50 (pIC50) in assay [1] (setting [5]) and in assay [2] (setting [6]) were 8.25 and 9.52, respectively.
For `CC(C)=CC(=O)CCCCC(=O)N1CCN(c2ccc3c(c2)-c2nc(N4C(=O)OC[C@H]4C(F)F)cn2CCO3)CC1` [Compound 158] the same measures were 6.60 and 6.49.
`CC(C)(N)C=C(C#N)C(=O)Nc1ccc(N2CC(N3CCN(c4ccc5c(c4)-c4nc(N6C(=O)OC[C@H]6C(F)F)cn4CCO5)CC3)C2)nc1` [Compound 242]: the pIC50 in assay [1] (setting [3]) and in assay [2] (setting [4]) was > 7.30 each time.
As for `C=CC(=O)N1CCc2cc(CN3CCN(c4ccc5c(c4)-c4nc(N6C(=O)OC[C@H]6C(F)F)cn4CCO5)CC3)ccc2C1` [Compound 207], the pIC50 is 7.00 to 7.30 in assay [1] (setting [3]) and > 7.30 in assay [2] (setting [4]).
For `CC(C)(N)C=C(C#N)C(=O)Nc1ccc(N2CC(N3CCN(c4ccc5c(c4)-c4nc(N6C(=O)OC[C@H]6C(F)F)cn4CCO5)CC3)C2)cc1` [Compound 137], the negative logarithm of the IC50 (pIC50) in assay [1] (setting [5]) was 9.22; in assay [2] (setting [6]), 10.00.
Regarding `C=CC(=O)N1CCc2cc(N3CC(N4CCN(c5ccc6c(c5)-c5nc(N7C(=O)OC[C@H]7C(F)F)cn5CCO6)CC4)C3)cc(C#N)c21` [Compound 193], the pIC50 in assay [1] (setting [3]) and in assay [2] (setting [4]) was > 7.30 throughout.
As to `CC#CC(=O)N1CCc2cc(N3CC(N4CCN(c5ccc6c(c5)-c5nc(N7C(=O)OC[C@H]7C(F)F)cn5CCO6)CC4)C3)ccc21` [Compound 165], the values for the pIC50 in assay [1] (setting [5]) and in assay [2] (setting [6]) were 7.52 and 8.47, respectively.
In the case of `COCCNC(C)(C)C=C(C#N)C(=O)Nc1ccc(N2CC(N3CCN(c4ccc5c(c4)-c4nc(N6C(=O)OC[C@H]6C(F)F)cn4CCO5)CC3)C2)cc1` [Compound 218], the pIC50 in assay [1] (setting [3]) and in assay [2] (setting [4]) was > 7.30 each time.
In the case of `C=CC(=O)Nc1ccc(CN2C[C@@H]3CN(c4ccc5c(c4)-c4nc(N6C(=O)OC[C@H]6C(F)F)cn4CCO5)C[C@@H]3C2)cc1` [Compound 41], the pIC50 in assay [1] (setting [5]) was 6.72; in assay [2] (setting [6]), 7.40.
In the case of `C=CC(=O)Nc1ccc(N2CC(N3CCC4(c5ccc6c(c5)-c5nc(N7C(=O)OC[C@H]7C(F)F)cn5CCO6)CC4C3)C2)cc1` (stereo partly shown) [Compound 107], the pIC50 in assay [1] (read-out: Inhibitory activity against HCC1954 cells (IC50)) is 6.88; in assay [2] (setting [6]) it was 7.80.
Consider `N#CC(=CC1CCCN1)C(=O)Nc1ccc(N2CC(N3CCN(c4ccc5c(c4)-c4nc(N6C(=O)OC[C@H]6C(F)F)cn4CCO5)CC3)C2)nc1` (stereo partly shown) [Compound 252], for which the pIC50 in assay [1] (setting [3]) and in assay [2] (setting [4]) was > 7.30 in each case.
Take `Cc1nc(-c2cn3c(n2)-c2cc(N4CCN(C5CN(c6ccc(NC(=O)C(C#N)=CC(C)(C)NC(=O)OC(C)(C)C)cn6)C5)CC4)ccc2OCC3)n(C(C)C)n1` [Compound 372]: the pIC50 in assay [1] (setting [3]) and in assay [2] (setting [4]) was > 7.30 each time.
In the case of `C=CC(=O)Nc1ccc(N2CC(N3CCN(c4ccc5c(c4)-c4nc(N6C(=O)OC[C@H]6C(F)F)cn4CCO5)CC3)C2)c(C#N)c1` [Compound 172], the pIC50 in assay [1] (setting [5]) is 8.44; in assay [2] (setting [6]), 9.70.
Turning to `CC(C)(C=C(C#N)C(=O)Nc1ccc(N2CC(N3CCN(c4ccc5c(c4)-c4nc(N6C(=O)OC[C@H]6C(F)F)cn4CCO5)CC3)C2)cc1)N1CCN(C2COC2)CC1` [Compound 304], the pIC50 in assay [1] (setting [3]) and in assay [2] (setting [4]) was > 7.30 each time.
On to `CC(=O)NC(C)(C)C=C(C#N)C(=O)Nc1ccc(N2CC(N3CCN(c4ccc5c(c4)-c4nc(N6C(=O)OC[C@H]6C(F)F)cn4CCO5)CC3)C2)nc1` [Compound 348], for which the pIC50 in assay [1] (setting [3]) and in assay [2] (setting [4]) was > 7.30 throughout.
`C=C(C)C(=O)Nc1ccc(N2CC(N3CCN(c4ccc5c(c4)-c4nc(N6C(=O)OC[C@H]6C(F)F)cn4CCO5)CC3)C2)cc1` [Compound 100]: the pIC50 in assay [1] (setting [5]) was 7.18; in assay [2] (setting [6]) it was 7.66.
Taken in the same sequence, the figures for `C=CC(=O)N1CCC(C(=O)NCC(=O)N2CCN(c3ccc4c(c3)-c3nc(N5C(=O)OC[C@H]5C(F)F)cn3CCO4)CC2)CC1` [Compound 6] were 6.18 and 7.00.
As to `C=CC(=O)Nc1ccc(N2CCC(N3CCN(c4ccc5c(c4)-c4nc(N6C(=O)OC[C@H]6C(F)F)cn4CCO5)CC3)C2)cc1` (stereo partly shown) [Compound 28], the values for the negative logarithm of the IC50 (pIC50) in assay [1] (setting [5]) and in assay [2] (setting [6]) were 6.74 and 7.74, respectively.
As to `CC(C)(N)C=C(C#N)C(=O)Nc1cnc(N2CC(N3CCN(c4ccc5c(c4)-c4nc(N6C(=O)OC[C@H]6C(F)F)cn4CCO5)CC3)C2)nc1` [Compound 260], the pIC50 in assay [1] (setting [3]) and in assay [2] (setting [4]) was > 7.30 in each case.
On to `C=CC(=O)Nc1ccc(N2CCC(C/C=C/c3ccc4c(c3)-c3nc(N5C(=O)OCC5C(F)F)cn3CCO4)CC2)cc1` (stereo not shown) [Compound 210], for which the figures for the negative logarithm of the IC50 (pIC50) in assay [1] (setting [3]) and in assay [2] (setting [4]) were 7.00 to 7.30 and > 7.30, respectively.
Consider `COC(C)(C)C=C(C#N)C(=O)Nc1ccc(N2CC(N3CCN(c4ccc5c(c4)-c4nc(N6C(=O)OC[C@H]6C(F)F)cn4CCO5)CC3)C2)c(F)c1` [Compound 231], for which the pIC50 in assay [1] (setting [3]) and in assay [2] (setting [4]) was > 7.30 each time.
Take `CC(C)OC(=O)OCOP(=O)(OCNC(C)(C)C=C(C#N)C(=O)Nc1ccc(N2CC(N3CCN(c4ccc5c(c4)-c4nc(N6C(=O)OC[C@H]6C(F)F)cn4CCO5)CC3)C2)cc1)OCOC(=O)OC(C)C` [Compound 334]: the pIC50 in assay [1] (setting [3]) and in assay [2] (setting [4]) was > 7.30 each time.
As to `C=CC(=O)Nc1cc(N2CC(N3CCN(c4ccc5c(c4)-c4nc(N6C(=O)OC[C@H]6C(F)F)cn4CCO5)CC3)C2)n(C)n1` [Compound 135], the pIC50 in assay [1] (setting [5]) is 7.80; in assay [2] (setting [6]), 8.82.
In the case of `Cc1nc(-c2cn3c(n2)-c2cc(N4CCN(C5CN(c6ccc(NC(=O)C(C#N)=CC(C)(C)N(C)C7COC7)cc6)C5)CC4)ccc2OCC3)n(C(C)C)n1` [Compound 339], the pIC50 in assay [1] (setting [3]) and in assay [2] (setting [4]) was > 7.30 throughout.
On to `C=CC(=O)N1CC[C@H](CN2CC3(CCN(c4ccc5c(c4)-c4nc(N6C(=O)OC[C@H]6C(F)F)cn4CCO5)CC3)C2)C1` [Compound 22], for which the negative logarithm of the IC50 (pIC50) was < 6.00 in assay [1] (setting [5]) and 6.84 in assay [2] (setting [6]).
`CN(C1COC1)C(C)(C)C=C(C#N)C(=O)Nc1ccc(N2CC(N3CCN(c4ccc5c(c4)-c4nc(N6C(=O)OC[C@H]6C(F)F)cn4CCO5)CC3)C2)c(Cl)c1` [Compound 352]: the negative-log IC50 (pIC50) in assay [1] (setting [3]) and in assay [2] (setting [4]) was > 7.30 throughout.
Take `C=CC(=O)N1CCc2c1ccc(N1CC(N3CCN(c4ccc5c(c4)-c4nc(N6C(=O)OC[C@H]6C(F)F)cn4CCO5)CC3)C1)c2F` [Compound 166]: the results for the pIC50 in assay [1] (setting [5]) and in assay [2] (setting [6]) were 8.03 and 8.92, respectively.
